In the NIST ThermoML archive (doi:10.1016/j.jct.2016.10.031):

Assay: molar heat capacity at constant pressure
Settings: 101.33 kPa, Small (less than 1 g) adiabatic calorimetry

CC(C)(C)c1ccc(Oc2ccc([N+](=O)[O-])cc2)cc1 [1-(tert-butyl)-4-(4-nitrophenoxy)benzene]
Settings	molar heat capacity at constant pressure [J/K/mol]
177.11 K, Crystal	219.25
177.56 K, Glass	222.49
177.91 K, Crystal	219.83
178.36 K, Glass	223.49
178.7 K, Crystal	220.33
179.15 K, Glass	224.32
179.5 K, Crystal	221.5
179.94 K, Glass	224.99
180 K, Crystal	222.33
180.3 K, Crystal	222.33
180.74 K, Glass	225.74
181.08 K, Crystal	223.58
181.52 K, Glass	226.98
181.88 K, Crystal	224.41
182.67 K, Crystal	224.99
183.09 K, Glass	227.73
183.47 K, Crystal	225.82
183.89 K, Glass	229.73
184.26 K, Crystal	226.74
184.68 K, Glass	230.39
185.06 K, Crystal	227.57
185.47 K, Glass	231.56
185.85 K, Crystal	228.48
186.26 K, Glass	232.14
186.65 K, Crystal	229.15
187.05 K, Glass	232.97
187.44 K, Crystal	230.48
187.84 K, Glass	233.97
188.22 K, Crystal	231.31
188.63 K, Glass	234.63
189.02 K, Crystal	232.14
189.42 K, Glass	235.47
189.81 K, Crystal	233.3
190 K, Crystal	233.22
190.21 K, Glass	236.46
190.6 K, Crystal	233.97
190.99 K, Glass	237.29
191.39 K, Crystal	234.63
191.78 K, Glass	237.88
192.19 K, Crystal	235.38
192.57 K, Glass	238.87
192.98 K, Crystal	236.3
193.36 K, Glass	239.79
193.75 K, Crystal	236.96
194.13 K, Glass	240.95
194.54 K, Crystal	237.79
194.91 K, Glass	241.45
195.33 K, Crystal	238.54
195.7 K, Glass	241.95
196.12 K, Crystal	239.46
196.49 K, Glass	243.2
196.91 K, Crystal	240.62
197.27 K, Glass	243.95
197.7 K, Crystal	241.29
198.06 K, Glass	245.11
198.49 K, Crystal	242.12
198.84 K, Glass	245.94
199.28 K, Crystal	243.03
199.63 K, Glass	246.69
200 K, Crystal	244.28
200.07 K, Crystal	244.03
200.62 K, Glass	248.02
201.06 K, Crystal	245.28
202.26 K, Crystal	246.86
203 K, Glass	251.26
203.46 K, Crystal	247.94
204.2 K, Glass	252.18
204.66 K, Crystal	249.18
205.4 K, Glass	253.42
205.86 K, Crystal	250.85
206.6 K, Glass	254.76
207.05 K, Crystal	252.26
207.79 K, Glass	256.09
208.26 K, Crystal	253.26
208.99 K, Glass	257.5
209.45 K, Crystal	254.42
210 K, Crystal	255.34
